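Compound exposure: 48 hours, 5 concentrations, 96-well plates. GI50 is the concentration that inhibits growth by half.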 Calls of active or inactive are those of the source. Cut-off read from the data, not from the text of the source: active = GI50 up to about 1.1 µM and inactive = higher.
Tests used:
Experiment in all cases: NCI anticancer screen, dose series, 48 h
786-0 = system: 786-0
A498 = system: A498
A549 = system: A549
ACHN = system: ACHN
CAKI-1 = system: CAKI-1
CCRF-CEM = system: CCRF-CEM
COLO 205 = system: COLO 205
DLD-1 = system: DLD-1
DMS-273 = system: DMS-273
EKVX = system: EKVX
HCC 2998 = system: HCC 2998
HCT-116 = system: HCT-116
HCT-15 = system: HCT-15
HL-60 = system: HL-60
HOP-18 = system: HOP-18
HOP-62 = system: HOP-62
HT-29 = system: HT-29
IGROV-1 = system: IGROV-1
K562 = system: K562
KM-20L2 = system: KM-20L2
KM12 = system: KM12
LOX IMVI = system: LOX IMVI
LXFL 529 = system: LXFL 529
M14 = system: M14
MOLT-4 = system: MOLT-4
Malme-3M = system: Malme-3M
NCI-H226 = system: NCI-H226
NCI-H23 = system: NCI-H23
NCI-H460 = system: NCI-H460
NCI-H522 = system: NCI-H522
OVCAR-3 = system: OVCAR-3
OVCAR-4 = system: OVCAR-4
OVCAR-5 = system: OVCAR-5
OVCAR-8 = system: OVCAR-8
RPMI-8226 = system: RPMI-8226
RXF 393 = system: RXF 393
SF-268 = system: SF-268
SF-295 = system: SF-295
SF-539 = system: SF-539
SK-MEL-28 = system: SK-MEL-28
SK-MEL-2 = system: SK-MEL-2
SK-MEL-5 = system: SK-MEL-5
SK-OV-3 = system: SK-OV-3
SN12C = system: SN12C
SNB-19 = system: SNB-19
SNB-75 = system: SNB-75
SNB-78 = system: SNB-78
SR = system: SR
SW-620 = system: SW-620
U-251 = system: U-251
UACC-257 = system: UACC-257
UACC-62 = system: UACC-62
UO-31 = system: UO-31
HOP-92 = system: HOP-92
M19-MEL = system: M19-MEL
TK-10 = system: TK-10

## COc1ccc(C#CCC(OC2OC(CO)C(O)C(O)C2O)C(O)c2ccc(OC)c(OC)c2)cc1OC (centres undefined)
786-0
  GI50: > 100 µM (inactive)
A498
  GI50: > 100 µM (inactive)
A549
  GI50: > 100 µM (inactive)
ACHN
  GI50: > 100 µM (inactive)
CAKI-1
  GI50: > 100 µM (inactive)
CCRF-CEM
  GI50: 36.6 µM (inactive)
COLO 205
  GI50: > 100 µM (inactive)
DLD-1
  GI50: > 100 µM (inactive)
DMS-273
  GI50: > 100 µM (inactive)
EKVX
  GI50: 81.3 µM (inactive)
HCC 2998
  GI50: > 100 µM (inactive)
HCT-116
  GI50: > 100 µM (inactive)
HCT-15
  GI50: > 100 µM
HL-60
  GI50: 61.1 µM (inactive)
HOP-18
  GI50: > 100 µM (inactive)
HOP-62
  GI50: > 100 µM (inactive)
HT-29
  GI50: > 100 µM (inactive)
IGROV-1
  GI50: > 100 µM (inactive)
K562
  GI50: 57.4 µM (inactive)
KM-20L2
  GI50: > 100 µM (inactive)
KM12
  GI50: > 100 µM (inactive)
LOX IMVI
  GI50: 22.8 µM (inactive)
LXFL 529
  GI50: > 100 µM (inactive)
M14
  GI50: > 100 µM (inactive)
MOLT-4
  GI50: > 100 µM (inactive)
Malme-3M
  GI50: > 100 µM (inactive)
NCI-H226
  GI50: > 100 µM (inactive)
NCI-H23
  GI50: > 100 µM (inactive)
NCI-H460
  GI50: > 100 µM (inactive)
NCI-H522
  GI50: > 100 µM (inactive)
OVCAR-3
  GI50: > 100 µM (inactive)
OVCAR-4
  GI50: > 100 µM (inactive)
OVCAR-5
  GI50: > 100 µM (inactive)
OVCAR-8
  GI50: > 100 µM (inactive)
RPMI-8226
  GI50: > 100 µM (inactive)
RXF 393
  GI50: > 100 µM (inactive)
SF-268
  GI50: > 100 µM (inactive)
SF-295
  GI50: > 100 µM (inactive)
SF-539
  GI50: > 100 µM (inactive)
SK-MEL-28
  GI50: > 100 µM (inactive)
SK-MEL-2
  GI50: > 100 µM (inactive)
SK-MEL-5
  GI50: > 100 µM (inactive)
SK-OV-3
  GI50: > 100 µM (inactive)
SN12C
  GI50: > 100 µM (inactive)
SNB-19
  GI50: > 100 µM (inactive)
SNB-75
  GI50: > 100 µM (inactive)
SNB-78
  GI50: > 100 µM (inactive)
SR
  GI50: > 100 µM (inactive)
SW-620
  GI50: > 100 µM (inactive)
U-251
  GI50: > 100 µM (inactive)
UACC-257
  GI50: > 100 µM (inactive)
UACC-62
  GI50: 61.7 µM (inactive)
UO-31
  GI50: > 100 µM (inactive)

## COc1ccc(CNC2=C(NC(C)=O)C(=O)c3ccccc3C2=O)cc1
786-0
  GI50: 24.4 µM (inactive)
A549
  GI50: 17.3 µM (inactive)
ACHN
  GI50: 2.07 µM (inactive)
CCRF-CEM
  GI50: 8.73 µM (inactive)
COLO 205
  GI50: 9.44 µM (inactive)
DLD-1
  GI50: 8.53 µM (inactive)
DMS-273
  GI50: 16.4 µM (inactive)
EKVX
  GI50: 14.7 µM (inactive)
HCC 2998
  GI50: 48.4 µM (inactive)
HCT-116
  GI50: 5.09 µM (inactive)
HCT-15
  GI50: 13.1 µM
HL-60
  GI50: 1.69 µM (inactive)
HOP-62
  GI50: > 50 µM (inactive)
HOP-92
  GI50: 6.56 µM (inactive)
HT-29
  GI50: 29.4 µM (inactive)
IGROV-1
  GI50: 16.8 µM (inactive)
K562
  GI50: 7.76 µM (inactive)
KM-20L2
  GI50: 28.8 µM (inactive)
KM12
  GI50: 23 µM (inactive)
LOX IMVI
  GI50: 8.51 µM (inactive)
LXFL 529
  GI50: 8.07 µM (inactive)
M14
  GI50: 19.4 µM (inactive)
M19-MEL
  GI50: 9.48 µM (inactive)
MOLT-4
  GI50: 3.71 µM (inactive)
Malme-3M
  GI50: 8.32 µM (inactive)
NCI-H226
  GI50: 12.6 µM (inactive)
NCI-H23
  GI50: 6.68 µM (inactive)
NCI-H460
  GI50: 15.2 µM (inactive)
NCI-H522
  GI50: 1.37 µM (inactive)
OVCAR-3
  GI50: 8.07 µM (inactive)
OVCAR-4
  GI50: 8.13 µM (inactive)
OVCAR-8
  GI50: 16.8 µM (inactive)
RXF 393
  GI50: 6.41 µM (inactive)
SF-268
  GI50: 18.9 µM (inactive)
SF-295
  GI50: 17.8 µM (inactive)
SF-539
  GI50: 7.43 µM (inactive)
SK-MEL-28
  GI50: 18.3 µM (inactive)
SK-MEL-2
  GI50: 9.18 µM (inactive)
SK-MEL-5
  GI50: 7.48 µM (inactive)
SK-OV-3
  GI50: 19.5 µM (inactive)
SN12C
  GI50: 16.8 µM (inactive)
SNB-19
  GI50: 25.5 µM (inactive)
SNB-75
  GI50: 12.8 µM (inactive)
SNB-78
  GI50: 11.9 µM (inactive)
SR
  GI50: 14 µM (inactive)
SW-620
  GI50: 8.13 µM (inactive)
TK-10
  GI50: 10.6 µM (inactive)
U-251
  GI50: 12.4 µM (inactive)
UACC-257
  GI50: 8.77 µM (inactive)
UACC-62
  GI50: 7.73 µM (inactive)
UO-31
  GI50: 9.53 µM (inactive)

From ChEMBL document CHEMBL1201862, “PubChem BioAssay data set” (2004)
